Like-named read-outs stand apart in the source and are kept apart here.
Experiments:
[1] = Toxicity: LC50 Fathead Minnow; conditions: in vivo
Protocol: (§1) Product A was evaluated for toxicity using various tests.

Algae = assay: Toxicity: EC50 Algae
Protocol: as §1

Daphnia Magna = assay: Toxicity: EC50 Daphnia Magna; format: in vivo
Protocol: as §1

Rat = assay: Toxicity: LC50 Rat; conditions: in vivo
Protocol: as §1

[2] = format: cell-based
Protocol: as §1

Biodegradation = assay: Biodegradation
Protocol: as §1

Microtox = format: cell-based
Protocol: as §1

[3] = Compatibility test of scale inhibitor solutions with Product A solution in synthetic brine; format: physicochemical; parameters: key: C—Clear; P—Precipitate; conditions: for Clarity of Mixed Solutions 10:90: ratio 10:90; for Clarity of Mixed Solutions 50:50: ratio 50:50
Source text: Individual solutions (Solutions 1B through 1G) of 10% Product B, C, D, E, F and G, respectively, in a synthetic brine (see the table below showing the synthetic brine composition) were mixed with a 10% solution (Solution 2) of Product A in the synthetic brine. The two sets of solutions were mixed with Solution 2 (i.e., each of Solutions 1B through 1G were mixed with Solution 2) at ratios of 10:90, 30:70, 50:50, 70:30 and 90:10 to indicate that no precipitate would form at any concentration in the mixing concentration range from 10:90 to 90:10. These compatibility screening tests indicate that it is unlikely for any incompatibility to be experienced during deployment and flow back of a squeeze treatment. Any incompatibilities under ambient conditions were observed visually from solution clarity and/or precipitate. The samples were then heated to the test temperature (80° C.) and any further incompatibilities after 2 and 24 hours recorded.

[4] = Coreflood on Bandera outcrop cores; conditions: post versus pre treatment
Protocol: Two corefloods were carried out simultaneously on two Bandera outcrop cores (1.5″ diameter by 3″ length), using a Scaled Solutions dual coreflood apparatus. The composition of these cores is set out in the table below:
Both cores were wrapped with PTFE tape and cased in heat shrink tubing prior to insertion into a Viton sleeve and mounted in a Hassler type core holder with a confining pressure of 1200 psi. Both cores were then flushed with synthetic brine at 1 mL/min for at least 2 hours and until the differential pressure was stable. Brine was flushed at 0.5 mL/min overnight.
Both cores were saturated with synthetic brine under ambient conditions in the forward direction at 1 mL/min for 10 minutes, 2 mL/min for 10 minutes, 3 mL/min for 10 minutes, and 4 mL/min for 2 hours and until the differential pressure was stable. After a stable differential pressure was achieved, the permeability to brine was measured in the forward flow by flooding at 4, 3, 2, 1 mL/min at room temperature.
Brine was then injected into both cores in the forward direction at 1 mL/min until the oven reached a temperature of 80° C. […] Following plug saturation, the permeability of each core to synthetic brine was measured in the forward flow by flooding at 4, 3, 2, and 1 mL/min at 80° C. […]
Both cores were injected with synthetic brine at 2 mL/min with effluent samples being collected. The samples were analyzed by ICP. […]

[5] = 10% scale inhibitor solution : 10% Product A solution in synthetic brine, ambient, then 80° C. 2 and 24 hours
[6] = 10% solutions in synthetic brine, with Product A
[7] = ratio 30:70 (second column), 10% solutions in synthetic brine, with Product A
[8] = ratio printed 30:70 (fourth column), 10% solutions in synthetic brine, with Product A

Molecule	LC50 [1] [µg/mL]	EC50 (Algae) [µg/mL]	EC50 (Daphnia Magna) [µg/mL]	LC50 Rat (Rat)	Ames Test [2]	Biodegradation (Biodegradation) [%]	IC50 (Microtox; 5 min, read-out: 5-min IC50 (95% CI)) [µg/mL]	IC50 (Microtox; 0.25 h, 15 min, read-out: 15-min IC50 (95% CI)) [µg/mL]	Clarity of Mixed Solutions 10:90 [3, 5]	Clarity of Mixed Solutions 10:90 [3, 6]	Clarity of Mixed Solutions 30:70 [3, 7]	Clarity of Mixed Solutions 50:50 [3, 6]	Clarity of Mixed Solutions 30:70 [3, 8]	Permeability Recovery [4] [%]
C[N+](C)(C)CC(O)C[N+](C)(C)C.[Cl-].[Cl-] [Product A, 1,3-propandiaminium, 2-hydroxy-N,N,N,N′,N′,N′-hexamethyl-, dichloride]	> 1000	1500	186	4,000 mg/kg	Non-	9	> 4000	> 4000						
O=P(O)(O)CN(CCCCCCN(CP(=O)(O)O)CP(=O)(O)O)CCCCCCN(CP(=O)(O)O)CP(=O)(O)O [Product B, BHMT phosphonate]									C	C	C	C	C	75
DETA phosphonate [Product C]									C	C	C	C	C	

Source: US9624758B2, “Use of oligo-quaternary compositions to increase scale inhibitor lifetime in a subterranean formation” (Ecolab USA Inc., priority 2012, dated 2017)
